Molecular target: G-protein coupled receptor 55 (Homo sapiens, UniProt Q9Y2T6)
Assay: blockers of GPR55 signalling, imaged – imaging, image-based, counter-screen for GPR35 antagonist project, SAR follow-up (AID 2397)
Conditions: inactive by the depositor's call

Chain of G-protein coupled receptor 55 (Q9Y2T6 whole entry): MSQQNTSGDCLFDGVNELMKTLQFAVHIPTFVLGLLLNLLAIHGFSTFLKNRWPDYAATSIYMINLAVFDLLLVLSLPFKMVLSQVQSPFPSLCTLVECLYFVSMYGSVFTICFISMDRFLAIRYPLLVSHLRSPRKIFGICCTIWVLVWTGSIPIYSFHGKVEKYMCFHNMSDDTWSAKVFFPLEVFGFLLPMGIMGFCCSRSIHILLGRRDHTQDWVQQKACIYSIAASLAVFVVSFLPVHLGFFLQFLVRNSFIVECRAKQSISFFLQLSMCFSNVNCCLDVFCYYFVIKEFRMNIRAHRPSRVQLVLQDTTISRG

IC50: 21.7 µM
SMILES: CC(/C=C1\SC(=S)N(CCCC(=O)Nc2ccc(C(=O)O)c(O)c2)C1=O)=C\c1ccccc1 [2-hydroxy-4-[[4-[(5Z)-5-[(E)-2-methyl-3-phenylprop-2-enylidene]-4-oxo-2-sulfanylidene-3-thiazolidinyl]-1-oxobutyl]amino]benzoic acid]
